According to US12441689B2 (EpiVario, Inc., priority 2019, dated 2025):

Molecular target: human ACSS2 protein (Homo sapiens (Human), UniProt Q9NR19)
Experiment: ACSS2 Cell-Free Activity Assay (Cell-Free IC50)
Conditions: 10 nM human ACSS2 protein, 90 minutes at 37 C, pyrophosphatase-coupled, Biomol Green absorbance at 620 nm; read-out: ACSS2 Biochemical IC50
From the text: ACSS2 Cell-Free Activity Assay (Cell-Free IC50)

Chain of human ACSS2 protein (Q9NR19 whole entry): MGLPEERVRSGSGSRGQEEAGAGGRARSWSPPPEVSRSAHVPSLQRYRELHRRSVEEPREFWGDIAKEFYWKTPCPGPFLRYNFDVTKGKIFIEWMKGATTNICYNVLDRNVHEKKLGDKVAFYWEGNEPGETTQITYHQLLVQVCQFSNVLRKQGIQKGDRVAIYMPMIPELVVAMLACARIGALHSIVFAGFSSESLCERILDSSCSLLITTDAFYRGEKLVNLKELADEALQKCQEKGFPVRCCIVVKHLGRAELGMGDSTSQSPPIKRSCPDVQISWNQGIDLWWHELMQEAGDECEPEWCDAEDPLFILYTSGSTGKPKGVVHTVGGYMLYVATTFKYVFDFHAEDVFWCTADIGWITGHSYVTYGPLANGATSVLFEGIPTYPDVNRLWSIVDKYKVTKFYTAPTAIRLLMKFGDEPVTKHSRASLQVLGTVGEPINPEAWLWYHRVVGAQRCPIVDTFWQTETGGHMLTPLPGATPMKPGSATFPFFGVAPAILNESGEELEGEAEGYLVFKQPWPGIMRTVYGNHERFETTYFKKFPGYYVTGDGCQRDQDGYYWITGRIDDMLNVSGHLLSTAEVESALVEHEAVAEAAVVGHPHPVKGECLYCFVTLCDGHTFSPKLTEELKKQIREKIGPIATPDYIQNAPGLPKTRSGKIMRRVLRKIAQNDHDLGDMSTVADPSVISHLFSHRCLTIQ

Row | SMILES | IC50 [µM]
1 | CC1=NN(c2ccc(OC(F)F)cc2)C(=O)C1(Cl)C(=O)Nc1cccc(C(C)(F)F)c1 (centres unmarked) [Compound 172, 4-chloro-N-(3-(1,1-difluoroethyl)phenyl)-1-(4-(difluoromethoxy)phenyl)-3-methyl-5-oxo-4,5-dihydro-1H-pyrazole-4-carboxamide] | 0.001 to 0.1
2 | CC(F)(F)c1cccc(NC(=O)c2cnc(-c3ccc(OC(F)F)cc3)nc2)c1 [Compound 173, N-(3-(1,1-difluoroethyl)phenyl)-2-(4-(difluoromethoxy)phenyl)pyrimidine-5-carboxamide] | > 0.1
3 | CC1=NN(c2ccc(OC(F)F)cc2)C(=O)C1(C)C(=O)Nc1cccc(C(C)(F)F)c1 (centres unmarked) [Compound 174, N-(3-(1,1-difluoroethyl)phenyl)-1-(4-(difluoromethoxy)phenyl)-3,4-dimethyl-5-oxo-4,5-dihydro-1H-pyrazole-4-carboxamide] | > 0.1
4 | Cc1nn(-c2ccc(OC(F)F)c(-c3ccccn3)c2)cc1C(=O)Nc1cccc(C(C)(F)F)c1 [Compound 175, N-[3-(1,1-difluoroethyl)phenyl]-1-[4-(difluoromethoxy)-3-(2-pyridyl)phenyl]-3-methyl-pyrazole-4-carboxamide] | 0.001 to 0.1
5 | Cc1nn(-c2cc(-c3ccccc3)c(OC(F)F)c(-c3ccccc3)c2)cc1C(=O)Nc1cccc(C(C)(F)F)c1 [Compound 176, N-(3-(1,1-difluoroethyl)phenyl)-1-(2′-(difluoromethoxy)-[1,1′:3′,1″-terphenyl]-5′-yl)-3-methyl-1H-pyrazole-4-carboxamide] | 0.001 to 0.1
6 | Cc1nn(-c2ccc(OC(F)F)c(-c3ccccn3)c2)c(C)c1C(=O)Nc1cccc(C(C)(F)F)c1 [Compound 177, N-(3-(1,1-difluoroethyl)phenyl)-1-(4-(difluoromethoxy)-3-(pyridin-2-yl)phenyl)-3,5-dimethyl-1H-pyrazole-4-carboxamide] | 0.001 to 0.1
7 | Cc1nn(-c2ccc(OC(F)F)c(-c3ccccc3)c2)c(C)c1C(=O)Nc1cccc(C(C)(F)F)c1 [Compound 178] | 0.001 to 0.1
8 | Cc1nn(-c2ccc(OC(F)F)c(-c3cccnc3)c2)c(OC(=O)N2CCN(C(C)(C)CO)CC2)c1C(=O)Nc1cccc(C(C)(F)F)c1 [Compound 183, 4-((3-(1,1-difluoroethyl)phenyl)carbamoyl)-1-(4-(difluoromethoxy)-3-(pyridin-3-yl)phenyl)-3-methyl-1H-pyrazol-5-yl 4-(1-hydroxy-2-methylpropan-2-yl)piperazine-1-carboxylate] | > 0.1
9 | Cc1nn(-c2ccc(OC(F)F)cc2)c(OC(=O)N2CCN(C(C)(C)CO)CC2)c1C(=O)Nc1cccc(C(C)(F)F)c1 [Compound 185, 4-((3-(1,1-difluoroethyl)phenyl)carbamoyl)-1-(4-(difluoromethoxy)phenyl)-3-methyl-1H-pyrazol-5-yl 4-(1-hydroxy-2-methylpropan-2-yl)piperazine-1-carboxylate] | > 0.1
10 | Cc1nn(-c2ccc(OC(F)F)c(-c3cccnc3)c2)c(OC(=O)N2CCN(CCO)CC2)c1C(=O)Nc1cccc(C(C)(F)F)c1 [Compound 187, 4-((3-(1,1-difluoroethyl)phenyl)carbamoyl)-1-(4-(difluoromethoxy)-3-(pyridin-3-yl)phenyl)-3-methyl-1H-pyrazol-5-yl 4-(2-hydroxyethyl)piperazine-1-carboxylate] | > 0.1
11 | COc1ccc(-n2nc(C)c(C(=O)Nc3cccc(C(C)(F)F)c3)c2OC(=O)N2CCC(N3CCCCC3)CC2)cc1 [Compound 188, 4-((3-(1,1-difluoroethyl)phenyl)carbamoyl)-1-(4-methoxyphenyl)-3-methyl-1H-pyrazol-5-yl [1,4′-bipiperidine]-1′-carboxylate] | 0.001 to 0.1
12 | Cc1nn(-c2ccc(OC(F)F)cc2)c(OC(=O)N2CCC(N3CCCCC3)CC2)c1C(=O)Nc1cccc(C(C)(F)F)c1 [Compound 189, 4-((3-(1,1-difluoroethyl)phenyl)carbamoyl)-1-(4-(difluoromethoxy)phenyl)-3-methyl-1H-pyrazol-5-yl [1,4′-bipiperidine]-1′-carboxylate] | 0.001 to 0.1
13 | Cc1nn(-c2ccc(OC(F)F)c(-c3cccnc3)c2)c(OC(=O)N2CCC(N3CCCCC3)CC2)c1C(=O)Nc1cccc(C(C)(F)F)c1 [Compound 190, 4-((3-(1,1-difluoroethyl)phenyl)carbamoyl)-1-(4-(difluoromethoxy)-3-(pyridin-3-yl)phenyl)-3-methyl-1H-pyrazol-5-yl [1,4′-bipiperidine]-1′-carboxylate] | 0.001 to 0.1
14 | Cc1nn(-c2ccc(OC(F)F)cc2)c(OC(=O)N2CCN(CCO)CC2)c1C(=O)Nc1cccc(C(C)(F)F)c1 [Compound 191, 4-((3-(1,1-difluoroethyl)phenyl)carbamoyl)-1-(4-(difluoromethoxy)phenyl)-3-methyl-1H-pyrazol-5-yl 4-(2-hydroxyethyl)piperazine-1-carboxylate] | 0.001 to 0.1

More lines, now with the values ahead:

Row | IC50 [µM] | SMILES
15 | 0.001 to 0.1 | Cc1nn(-c2ccc(OC(F)F)c(-c3cccnc3)c2)c(C)c1C(=O)Nc1cccc(C(C)(F)F)c1 [Compound 179, N-(3-(1,1-difluoroethyl)phenyl)-1-(4-(difluoromethoxy)-3-(pyridin-3-yl)phenyl)-3,5-dimethyl-1H-pyrazole-4-carboxamide]
16 | 0.001 to 0.1 | COc1c(C)cc(N2N=C(C)C(C(=O)Nc3cccc(C(C)(F)F)c3)C2=O)cc1-c1ccccc1 (centres unmarked) [Compound 180, N-[3-(1,1-difluoroethyl)phenyl]-1-(4-methoxy-3-methyl-5-phenyl-phenyl)-3-methyl-5-oxo-4H-pyrazole-4-carboxamide]
17 | 0.001 to 0.1 | Cc1nn(-c2ccc(OC(F)F)c(-c3ccncc3)c2)cc1C(=O)Nc1cccc(C(C)(F)F)c1 [Compound 181, N-(3-(1,1-difluoroethyl)phenyl)-1-(4-(difluoromethoxy)-3-(pyridin-4-yl)phenyl)-3-methyl-1H-pyrazole-4-carboxamide]
18 | 0.001 to 0.1 | Cc1nn(-c2ccc(OC(F)F)c(-c3cccnc3)c2)cc1C(=O)Nc1cccc(C(C)(F)F)c1 [Compound 182, N-(3-(1,1-difluoroethyl)phenyl)-1-(4-(difluoromethoxy)-3-(pyridin-3-yl)phenyl)-3-methyl-1H-pyrazole-4-carboxamide]
19 | > 0.1 | Cc1nn(-c2ccc(OC(F)F)cc2)c(C)c1C(=O)Nc1cccc(C(C)(F)F)c1 [Compound 184, N-(3-(1,1-difluoroethyl)phenyl)-1-(4-(difluoromethoxy)phenyl)-3,5-dimethyl-1H-pyrazole-4-carboxamide]
20 | 0.001 to 0.1 | Cc1nn(-c2ccc(OC(F)F)c(-c3ccccc3)c2)cc1C(=O)Nc1cccc(C(C)(F)F)c1 [Compound 186, N-(3-(1,1-difluoroethyl)phenyl)-1-(6-(difluoromethoxy)-[1,1’-biphenyl]-3-yl)-3-methyl-1H-pyrazole-4-carboxamide]
21 | 0.001 to 0.1 | Cc1nn(-c2ccc(OC(F)F)cc2)c(C(F)(F)F)c1C(=O)Nc1cccc(C(C)(F)F)c1 [Compound 192, N-(3-(1,1-difluoroethyl)phenyl)-1-(4-(difluoromethoxy)phenyl)-3-methyl-5-(trifluoromethyl)-1H-pyrazole-4-carboxamide]
22 | > 0.1 | CC(=O)c1c(C(=O)Nc2cccc(C(C)(F)F)c2)c(C)nn1-c1ccc(OC(F)F)cc1 [Compound 193, 5-acetyl-N-(3-(1,1-difluoroethyl)phenyl)-1-(4-(difluoromethoxy)phenyl)-3-methyl-1H-pyrazole-4-carboxamide]
23 | 0.001 to 0.1 | Cc1nn(-c2ccc(OC(F)F)cc2)c(CO)c1C(=O)Nc1cccc(C(C)(F)F)c1 [Compound 194, N-[3-(1,1-difluoroethyl)phenyl]-1-[4-(difluoromethoxy)phenyl]-5-(hydroxymethyl)-3-methyl-pyrazole-4-carboxamide]
24 | 0.001 to 0.1 | Cc1nn(-c2ccc(OC(F)F)cc2)cc1C(=O)Nc1cccc(C(C)(F)F)c1 [Compound 196, N-(3-(1,1-difluoroethyl)phenyl)-1-(4-(difluoromethoxy)phenyl)-3-methyl-1H-pyrazole-4-carboxamide]
25 | > 0.1 | CC(F)(F)c1cccc(NC(=O)C2C(=O)N(c3ccc(OC(F)F)cc3)N=C2CS)c1 (centres unmarked) [Compound 197]
26 | > 0.1 | CC1=NN(c2ccc(OC(F)F)cc2)C(=O)C1(C)NC(=O)c1cccc(C(C)(F)F)c1 (centres unmarked) [Compound 198, 3-(1,1-difluoroethyl)-N-(1-(4-(difluoromethoxy)phenyl)-3,4-dimethyl-5-oxo-4,5-dihydro-1H-pyrazol-4-yl)benzamide]
27 | 0.001 to 0.1 | COc1c(C(=O)Nc2cccc(C(C)(F)F)c2)c(C)nn1-c1ccc(OC(F)F)cc1 [Compound 199, N-(3-(1,1-difluoroethyl)phenyl)-1-(4-(difluoromethoxy)phenyl)-5-methoxy-3-methyl-1H-pyrazole-4-carboxamide]
28 | > 0.1 | Cc1nn(-c2ccc(OC(F)F)cc2)c(F)c1C(=O)Nc1cccc(C(C)(F)F)c1 [Compound 200, N-(3-(1,1-difluoroethyl)phenyl)-1-(4-(difluoromethoxy)phenyl)-5-fluoro-3-methyl-1H-pyrazole-4-carboxamide]
29 | > 0.1 | CCOc1c(C(=O)Nc2cccc(C(C)(F)F)c2)c(C)nn1-c1ccc(OC(F)F)cc1 [Compound 201, N-(3-(1,1-difluoroethyl)phenyl)-1-(4-(difluoromethoxy)phenyl)-5-ethoxy-3-methyl-1H-pyrazole-4-carboxamide]
30 | 0.001 to 0.1 | COc1ccc(N2N=C(C)C(Cl)(C(=O)Nc3cccc(C(C)(F)F)c3)C2=O)cc1 (centres unmarked) [Compound 202, 4-chloro-N-(3-(1,1-difluoroethyl)phenyl)-1-(4-methoxyphenyl)-3-methyl-5-oxo-4,5-dihydro-1H-pyrazole-4-carboxamide]
31 | > 0.1 | CC1=NN(c2ccc(OC(F)(F)F)cc2)C(=O)C1(F)C(=O)Nc1cccc(C(C)(F)F)c1 (centres unmarked) [Compound 203, N-(3-(1,1-difluoroethyl)phenyl)-4-fluoro-3-methyl-5-oxo-1-(4-(trifluoromethoxy)phenyl)-4,5-dihydro-1H-pyrazole-4-carboxamide]
32 | < 0.001 | CC1=NN(c2ccc(OC(F)F)c(-c3ccncc3)c2)C(=O)C1(F)C(=O)Nc1cccc(C(C)(F)F)c1 (centres unmarked) [Compound 204, N-(3-(1,1-difluoroethyl)phenyl)-1-(4-(difluoromethoxy)-3-(pyridin-4-yl)phenyl)-4-fluoro-3-methyl-5-oxo-4,5-dihydro-1H-pyrazole-4-carboxamide]
